Assay results taken from ChEMBL document CHEMBL1201862, “PubChem BioAssay data set” (2004).
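Growth conditions: 96-well plates. Treatment: test compound, 48 hours, 5 concentrations. Analysis: linear interpolation between bracketing concentrations; unreached endpoints set to highest concentration. At the GI50, growth is halved.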 Active and inactive are the calls of the source. Rule as the data show it: active = GI50 up to about 1.1 µM and inactive = higher.

Experiments:
Assay in all cases: growth of human tumour cells (NCI), 48 h
HOP-18 = tested on: HOP-18
KM12 = tested on: KM12
SF-295 = tested on: SF-295
HL-60 = tested on: HL-60
NCI-H23 = tested on: NCI-H23
UACC-257 = tested on: UACC-257
NCI/ADR-RES = tested on: NCI/ADR-RES
HT-29 = tested on: HT-29
NCI-H522 = tested on: NCI-H522
UACC-62 = tested on: UACC-62
SW-620 = tested on: SW-620
RPMI-8226 = tested on: RPMI-8226
OVCAR-3 = tested on: OVCAR-3
MCF7 = tested on: MCF7
UO-31 = tested on: UO-31
XF498 = tested on: XF498
DLD-1 = tested on: DLD-1
NCI-H226 = tested on: NCI-H226
A498 = tested on: A498
HCC 2998 = tested on: HCC 2998
SNB-19 = tested on: SNB-19
K562 = tested on: K562
EKVX = tested on: EKVX
NCI-H460 = tested on: NCI-H460
DMS-114 = tested on: DMS-114
HOP-92 = tested on: HOP-92
U-251 = tested on: U-251
SK-MEL-28 = tested on: SK-MEL-28
SNB-75 = tested on: SNB-75
M19-MEL = tested on: M19-MEL
SN12C = tested on: SN12C
SK-MEL-5 = tested on: SK-MEL-5
LOX IMVI = tested on: LOX IMVI
OVCAR-8 = tested on: OVCAR-8
DMS-273 = tested on: DMS-273
SF-539 = tested on: SF-539
OVCAR-4 = tested on: OVCAR-4
COLO 205 = tested on: COLO 205
HCT-116 = tested on: HCT-116
A549 = tested on: A549
RXF 393 = tested on: RXF 393
SK-MEL-2 = tested on: SK-MEL-2
HCT-15 = tested on: HCT-15
Malme-3M = tested on: Malme-3M
CAKI-1 = tested on: CAKI-1
SF-268 = tested on: SF-268
SK-OV-3 = tested on: SK-OV-3
SNB-78 = tested on: SNB-78
IGROV-1 = tested on: IGROV-1
KM-20L2 = tested on: KM-20L2
CCRF-CEM = tested on: CCRF-CEM
MOLT-4 = tested on: MOLT-4
HOP-62 = tested on: HOP-62
OVCAR-5 = tested on: OVCAR-5

Structure (SMILES): NCCCNCCSP(=O)(O)O [AMIFOSTINE]
- GI50 (HOP-18): > 750 µM (inactive)
- GI50 (KM12): 543 µM (inactive)
- GI50 (SF-295): > 750 µM (inactive)
- GI50 (HL-60): 176 µM (inactive)
- GI50 (NCI-H23): > 750 µM (inactive)
- GI50 (UACC-257): > 750 µM (inactive)
- GI50 (NCI/ADR-RES): > 750 µM (inactive)
- GI50 (HT-29): > 750 µM (inactive)
- GI50 (NCI-H522): 389 µM (inactive)
- GI50 (UACC-62): > 710 µM (inactive)
- GI50 (SW-620): > 750 µM (inactive)
- GI50 (RPMI-8226): > 452 µM (inactive)
- GI50 (OVCAR-3): > 750 µM (inactive)
- GI50 (MCF7): > 750 µM (inactive)
- GI50 (UO-31): 535 µM (inactive)
- GI50 (XF498): > 422 µM (inactive)
- GI50 (DLD-1): > 750 µM (inactive)
- GI50 (NCI-H226): > 703 µM (inactive)
- GI50 (A498): > 75 µM (inactive)
- GI50 (HCC 2998): > 733 µM (inactive)
- GI50 (SNB-19): > 750 µM (inactive)
- GI50 (K562): > 750 µM (inactive)
- GI50 (EKVX): > 750 µM (inactive)
- GI50 (NCI-H460): > 750 µM (inactive)
- GI50 (DMS-114): > 750 µM (inactive)
- GI50 (HOP-92): > 750 µM (inactive)
- GI50 (U-251): > 750 µM (inactive)
- GI50 (SK-MEL-28): > 750 µM (inactive)
- GI50 (SNB-75): > 750 µM (inactive)
- GI50 (M19-MEL): 514 µM (inactive)
- GI50 (SN12C): > 750 µM (inactive)
- GI50 (SK-MEL-5): > 750 µM (inactive)
- GI50 (LOX IMVI): 270 µM (inactive)
- GI50 (OVCAR-8): > 511 µM (inactive)
- GI50 (DMS-273): > 750 µM (inactive)
- GI50 (SF-539): > 750 µM (inactive)
- GI50 (OVCAR-4): > 635 µM (inactive)
- GI50 (COLO 205): 385 µM (inactive)
- GI50 (HCT-116): 743 µM (inactive)
- GI50 (A549): > 519 µM (inactive)
- GI50 (RXF 393): > 736 µM (inactive)
- GI50 (SK-MEL-2): > 242 µM (inactive)
- GI50 (HCT-15): > 274 µM
- GI50 (Malme-3M): > 335 µM (inactive)
- GI50 (CAKI-1): > 678 µM (inactive)
- GI50 (SF-268): > 750 µM (inactive)
- GI50 (SK-OV-3): > 750 µM (inactive)
- GI50 (SNB-78): > 750 µM (inactive)
- GI50 (IGROV-1): > 750 µM (inactive)
- GI50 (KM-20L2): > 719 µM (inactive)
- GI50 (CCRF-CEM): 512 µM (inactive)
- GI50 (MOLT-4): 685 µM (inactive)
- GI50 (HOP-62): > 321 µM (inactive)
- GI50 (OVCAR-5): > 750 µM (inactive)

Structure (SMILES): CCCCC1(C2c3ccccc3Oc3ccccc32)C(=O)N(c2ccccc2)N(c2ccccc2)C1=O
- GI50 (HOP-18): > 100 µM (inactive)
- GI50 (KM12): 63.5 µM (inactive)
- GI50 (SF-295): > 92.7 µM (inactive)
- GI50 (HL-60): 21.9 µM (inactive)
- GI50 (NCI-H23): 32.1 µM (inactive)
- GI50 (UACC-257): 29.4 µM (inactive)
- GI50 (NCI/ADR-RES): 62.2 µM (inactive)
- GI50 (HT-29): 77.1 µM (inactive)
- GI50 (NCI-H522): 3.79 µM (inactive)
- GI50 (UACC-62): > 89.3 µM (inactive)
- GI50 (SW-620): 56.6 µM (inactive)
- GI50 (RPMI-8226): 27.7 µM (inactive)
- GI50 (OVCAR-3): 42.3 µM (inactive)
- GI50 (MCF7): 55 µM (inactive)
- GI50 (UO-31): > 83.2 µM (inactive)
- GI50 (XF498): > 31.9 µM (inactive)
- GI50 (DLD-1): 25.8 µM (inactive)
- GI50 (NCI-H226): > 80.9 µM (inactive)
- GI50 (A498): 64.9 µM (inactive)
- GI50 (HCC 2998): > 41.1 µM (inactive)
- GI50 (SNB-19): 82 µM (inactive)
- GI50 (K562): 18.9 µM (inactive)
- GI50 (EKVX): > 100 µM (inactive)
- GI50 (NCI-H460): 47.8 µM (inactive)
- GI50 (HOP-92): 97.5 µM (inactive)
- GI50 (U-251): 31.3 µM (inactive)
- GI50 (SK-MEL-28): > 100 µM (inactive)
- GI50 (SNB-75): 86.7 µM (inactive)
- GI50 (M19-MEL): > 100 µM (inactive)
- GI50 (SN12C): > 61.9 µM (inactive)
- GI50 (SK-MEL-5): 34.3 µM (inactive)
- GI50 (LOX IMVI): 41 µM (inactive)
- GI50 (OVCAR-8): > 100 µM (inactive)
- GI50 (DMS-273): 47 µM (inactive)
- GI50 (SF-539): > 100 µM (inactive)
- GI50 (OVCAR-4): 60.1 µM (inactive)
- GI50 (COLO 205): > 100 µM (inactive)
- GI50 (HCT-116): 41.3 µM (inactive)
- GI50 (A549): 39.1 µM (inactive)
- GI50 (RXF 393): 19.9 µM (inactive)
- GI50 (SK-MEL-2): > 100 µM (inactive)
- GI50 (HCT-15): 41.3 µM
- GI50 (Malme-3M): > 100 µM (inactive)
- GI50 (CAKI-1): 11.6 µM (inactive)
- GI50 (SF-268): > 79.1 µM (inactive)
- GI50 (SK-OV-3): > 100 µM (inactive)
- GI50 (SNB-78): 37.1 µM (inactive)
- GI50 (IGROV-1): > 72.3 µM (inactive)
- GI50 (KM-20L2): 22.5 µM (inactive)
- GI50 (CCRF-CEM): 22.5 µM (inactive)
- GI50 (MOLT-4): > 10 µM (inactive)
- GI50 (HOP-62): > 100 µM (inactive)
- GI50 (OVCAR-5): > 100 µM (inactive)
